Results on three molecules are retold here after patent publication US20080019949A1, “DIFFERENTIATION OF STEM CELLS FROM UMBILICAL CORD MATRIX INTO […] CELLS” (UNIVERSITY OF KANSAS, priority 2006, published 2008).

Series [1] deals with differentiated HUCM cells (hepatocyte-like cells).
Protocol: RNA isolation and Reverse Transcription Polymerase Chain Reaction (RT-PCR.): RNA was isolated from cells on RNeasy Quick spin columns (Qiagen, Valencia, Calif.) and converted to cDNA using random hexamers and SuperScript II reverse transcriptase (Invitrogen, Carlsbad, Calif.). PCR was performed using a BioRad I-Cycler. Products were resolved by 2% agarose gel electrophoresis and visualized by ethidium bromide staining. Expression of numerous hepatocyte-specific genes was analyzed, including CK18, cytokeratin 18; HNF3-β, hepatocyte nuclear factor 3β; CK19, cytokeratin 19; AFP, alpha fetoprotein; Alb, albumin; and CYP2B6, cytochrome P450 2 family.
Cytochromes were induced by treatment with; Rifamicin (RIF), 20 um; Penobarbital (PB), 2 mM; forskolin, 50 uM; 8-Bromo-cAMP, 1 mM (Tocris, Ellisville, Mo.); and vehicle controls for 24-hour period. mRNA was then harvested and then analyzed by RT-PCR.
For series [2], the system named is differentiated and undifferentiated HUMCs. Briefly: Cellular uptake of Indocyanine Green (ICG). The class given is cell-based, human. To be noted: 1 mg/mL ICG concentration. As to the method: Cellular uptake of Indocyanine Green (ICG.): ICG was dissolved to an initial concentration of 5 mg/mL in solvent. The solution was then diluted to 1 mg/mL in maturation media and added to the culture dish and incubated at 37° C. in a humidified incubator at 5% CO2 for 10-15 minutes. The cells were washed thoroughly with sterile PBS and then visualized under a light microscope. After examination, the PBS was then removed and maturation media was added and the cells incubated at 37° C. in a humidified incubator at 5% CO2 for ˜4-6 hours to confirm elimination of ICG.

Take `C=C[C@@]1(C)CC(=O)[C@]2(O)[C@@]3(C)[C@@H](O)CCC(C)(C)[C@@H]3[C@H](O)[C@H](OC(C)=O)[C@@]2(C)O1` [forskolin]: the “expression of inducible markers (CAR, PXR, PGC-1, PEPCK, PPAR-γ, CYP3A4, HNF4α)” value in series [1] is given as “showed a number of hepatocyte-inducible genes or an increase in expression levels”.

For the molecule `CCC1(c2ccccc2)C(=O)NC(=O)NC1=O` [PB, phenobarbital], in series [1], the “CYP3A4 expression (RT-PCR)” value is “induced”; the “PXR expression (RT-PCR)” value was “induced”; the “expression of inducible markers (CAR, PXR, PGC-1, PEPCK, PPAR-γ, CYP3A4, HNF4α)” value is given as “showed a number of hepatocyte-inducible genes or an increase in expression levels”.

As for `CC1(C)C(/C=C/C=C/C=C/C=C2\N(CCCCS(=O)(=O)O)c3ccc4ccccc4c3C2(C)C)=[N+](CCCCS(=O)(=O)[O-])c2ccc3ccccc3c21` [ICG, Indocyanine Green], in series [2], the “adverse effects on cells” value is reported as “no adverse effects were observed”.
